{
  "source": "patent US20140303092A1",
  "about": "(CHIMERIX, INC., priority 2011, published 2014)",
  "experiment": "Study HDP-CDV-201: safety and tolerability (adverse events, laboratory abnormalities, discontinuations)",
  "format": "in vivo, human (adult allogeneic HSCT recipients)",
  "settings": "for Subjects with Hemoglobin <6.5 g/dL / Subjects with Hemoglobin <8-6.5 g/dL / Subjects with Hemoglobin <10-8 g/dL / Subjects with Hemoglobin <LLN-10 g/dL / Subjects with Neutrophils <0.5 GI/L / Subjects with Neutrophils <1.0-0.5 GI/L / Subjects with Neutrophils <1.5-1 GI/L / Subjects with Neutrophils <LLN-1.5 GI/L / Subjects with Platelets <25 GI/L / Subjects with Platelets <50-25 GI/L / Subjects with Platelets <75-50 GI/L / Subjects with Platelets <LLN-75 GI/L / Subjects with Serum Creatinine >1 × ULN-[…] ULN / Subjects with Serum Creatinine >3 × ULN-6 × ULN / Subjects with Serum Creatinine >6 × ULN / Subjects with Serum Creatinine >[…] ULN-3 × ULN / Subjects with WBC <1 GI/L / Subjects with WBC <2-1 GI/L / Subjects with WBC <3-2 GI/L / Subjects with WBC <LLN-3 GI/L: any time during therapy",
  "description": "Clinical Studies of HDP-CDV were performed and described in detail in the following Examples. For example, HDP-CDV-201 is a placebo-controlled, dose-escalating trial in HSCT CMV (R+) recipients, evaluating the ability of HDP-CDV to prevent or control CMV infection was carried out. Five cohorts were established in which participants or subjects received either placebo or the HDP-CDV orally, in doses ranging from 40 mg weekly (QW) to 200 mg twice weekly (BIW). Subjects who were post-HSCT were enrolled at the time of engraftment and randomized to HDP-CDV or placebo (3 to 1 ratio) and received blinded therapy until approximately 100 day post-transplantation. HDP-CDV doses were 40 mg QW, 100 mg QW, 200 mg QW, 200 mg BIW and 100 mg BIW. Escalation to the next dose was decided by the data monitoring committee after review of the safety data from the previous Cohort. Subjects who developed CMV disease or CMV infection requiring pre-emptive therapy with local standard of care were discontinued from blinded therapy and followed for 4 weeks. Subjects who completed treatment with blinded therapy were followed for 8 weeks post-therapy.\nData from Study HDP-CDV-201 also provided characterization of the safety and tolerability profile of HDP-CDV when administered for the prevention or control of CMV infection in high risk (R^+) post-HSCT adult subjects.\nThe Safety population (SAFETY) included all randomized subjects who took at least one dose of study treatment. This population was used to summarize safety outcomes based on the treatment actually received, in cases where a subject was treated contrary to the randomization schedule.\nThe safety and tolerability profile of HDP-CDV, including subject demographics and Baseline characteristics; the AE profile; and laboratory abnormalities of interest were analyzed in the cohorts followed in this investigation.\nSubjects completing the treatment period received a full course of study medication; those completing the entire study attended visits through 8 weeks of follow up. Subjects who discontinued treatment may have done so for protocol specified reasons (e.g. development of clinically significant CMV infection requiring preemptive treatment with excluded anti-CMV medications) or for other reasons (e.g., withdrawal, adverse events, loss to follow-up). The disposition of subjects in Study HDP-CDV-201 during the double-blind, placebo-controlled treatment period (through Week 11) is listed by dosing Cohort in TABLE 23.\nAdverse events were examined by severity to ensure that all safety signals were identified in this study population. Because of the frequency of events in HSCT recipients, particular attention was given to evaluation of Grade 3 […], 4 (severe), and 5 (fatal) adverse events.\nOnly those preferred terms for which at least one Grade 3 or higher event was experienced in any treatment group are listed. Cytomegalovirus-related AEs are excluded from this analysis.\nHDP-CDV is a lipid conjugate of CDV. Because CDV is known to have adverse effects on renal function and bone marrow, decreased GFR and persistent neutropenia were identified as AEs of special interest. Key renal and hematological (TABLE 30) laboratory parameters were measured and listed below by Study HDP-CDV-201 treatment groups. TABLE 30 includes abnormal levels of serum creatinine, neutrophils, platelets, WBCs, and hemoglobin and includes data at Screening and during the treatment period.\nA common metric for unit based dosing of medications is by weight (mg/kg). When the distribution of weights was examined for all subjects participating in the study, the median was 78 kg and the lower 25th percentile weight was approximately 65 kg, which translates to a cut-off of ˜3 mg/kg for a 200 mg total weekly dose. Based upon this approach, a cut-off of 3 mg/kg was used to assess the frequency of diarrhea and associated GI AEs reported for the subjects in Cohorts 3 or 4a (TABLE 40).",
  "data": [
    {"smiles": "CCCCCCCCCCCCCCCCOCCCOP(=O)(O)COC(CO)Cn1ccc(N)nc1=O", "note": "(centres unmarked) [HDP-CDV]", "values": [
      {"measurement": "Outcome of hepatobiliary AE hyperbilirubinemia, subject 4080", "setting": "Cohort 4a", "value": "not recovered/not"},
      {"measurement": "Outcome of hepatobiliary AE hyperbilirubinemia, subject 4090", "setting": "Cohort 4a", "value": "recovered/resolved"},
      {"measurement": "Outcome of hepatobiliary AE worsening hyperbilirubinemia, subject 4109", "setting": "Cohort 4a", "value": "not recovered/not"},
      {"measurement": "Relationship of hepatobiliary AE cholecystitis, subject 4058", "setting": "Cohort 4a", "value": "not related"},
      {"measurement": "Relationship of hepatobiliary AE hyperbilirubinemia, subject 4080", "setting": "Cohort 4a", "value": "not related"},
      {"measurement": "Relationship of hepatobiliary AE hyperbilirubinemia, subject 4090", "setting": "Cohort 4a", "value": "possibly related"},
      {"measurement": "Relationship of hepatobiliary AE worsening hyperbilirubinemia, subject 4109", "setting": "Cohort 4a", "value": "not related"},
      {"measurement": "frequency of SAEs involving the gastrointestinal tract", "setting": "Cohort 4a (100 mg BIW)", "value": 42, "unit": "%"},
      {"measurement": "typical ALT increases relative to Baseline", "setting": "Weeks 2 to 4 of dosing, doses of 200 mg per week or higher", "value": "2-4 times Baseline"},
      {"measurement": "subjects who discontinued study drug because of GI AEs", "setting": "after introduction of the safety monitoring and management plan", "value": "≤ 10", "unit": "%"},
      {"measurement": "Grade 3 or 4 increases in creatinine", "setting": "any dose", "value": "no Grade 3 or 4 increases in creatinine"},
      {"measurement": "subjects who discontinued study drug due to GI AEs", "setting": "any dose other than 200 mg BIW", "value": "less than 10%"},
      {"measurement": "Subjects with Hemoglobin <6.5 g/dL", "setting": "40 mg QW", "value": 0},
      {"measurement": "Subjects with Hemoglobin <8-6.5 g/dL", "setting": "40 mg QW", "value": "1 (4.3%)"},
      {"measurement": "Subjects with Hemoglobin <10-8 g/dL", "setting": "40 mg QW", "value": "11 (47.8%)"},
      {"measurement": "Subjects with Hemoglobin <LLN-10 g/dL", "setting": "40 mg QW", "value": "10 (43.5%)"},
      {"measurement": "Subjects with Neutrophils <0.5 GI/L", "setting": "40 mg QW", "value": 0},
      {"measurement": "Subjects with Neutrophils <1.0-0.5 GI/L", "setting": "40 mg QW", "value": "2 (8.7%)"},
      {"measurement": "Subjects with Neutrophils <1.5-1 GI/L", "setting": "40 mg QW", "value": "5 (21.7%)"},
      {"measurement": "Subjects with Neutrophils <LLN-1.5 GI/L", "setting": "40 mg QW", "value": "4 (17.4%)"},
      {"measurement": "Subjects with Platelets <25 GI/L", "setting": "40 mg QW", "value": "4 (17.4%)"},
      {"measurement": "Subjects with Platelets <50-25 GI/L", "setting": "40 mg QW", "value": "9 (39.1%)"},
      {"measurement": "Subjects with Platelets <75-50 GI/L", "setting": "40 mg QW", "value": "4 (17.4%)"},
      {"measurement": "Subjects with Platelets <LLN-75 GI/L", "setting": "40 mg QW", "value": "6 (26.1%)"},
      {"measurement": "Subjects with Serum Creatinine >1 × ULN-[…] ULN", "setting": "40 mg QW", "value": "8 (34.8%)"},
      {"measurement": "Subjects with Serum Creatinine >3 × ULN-6 × ULN", "setting": "40 mg QW", "value": 0},
      {"measurement": "Subjects with Serum Creatinine >6 × ULN", "setting": "40 mg QW", "value": 0},
      {"measurement": "Subjects with Serum Creatinine >[…] ULN-3 × ULN", "setting": "40 mg QW", "value": "2 (8.7%)"},
      {"measurement": "Subjects with WBC <1 GI/L", "setting": "40 mg QW", "value": 0},
      {"measurement": "Subjects with WBC <2-1 GI/L", "setting": "40 mg QW", "value": "5 (21.7%)"},
      {"measurement": "Subjects with WBC <3-2 GI/L", "setting": "40 mg QW", "value": "6 (26.1%)"},
      {"measurement": "Subjects with WBC <LLN-3 GI/L", "setting": "40 mg QW", "value": "5 (21.7%)"},
      {"measurement": "Subjects with Hemoglobin <6.5 g/dL", "setting": "100 mg BIW", "value": "1 (2.0%)"},
      {"measurement": "Subjects with Hemoglobin <8-6.5 g/dL", "setting": "100 mg BIW", "value": "4 (8.0%)"},
      {"measurement": "Subjects with Hemoglobin <10-8 g/dL", "setting": "100 mg BIW", "value": "27 (54.0%)"},
      {"measurement": "Subjects with Hemoglobin <LLN-10 g/dL", "setting": "100 mg BIW", "value": "17 (34.0%)"},
      {"measurement": "Subjects with Neutrophils <0.5 GI/L", "setting": "100 mg BIW", "value": "3 (6.0%)"},
      {"measurement": "Subjects with Neutrophils <1.0-0.5 GI/L", "setting": "100 mg BIW", "value": "10 (20.0%)"},
      {"measurement": "Subjects with Neutrophils <1.5-1 GI/L", "setting": "100 mg BIW", "value": "10 (20.0%)"},
      {"measurement": "Subjects with Neutrophils <LLN-1.5 GI/L", "setting": "100 mg BIW", "value": "5 (10.0%)"},
      {"measurement": "Subjects with Platelets <25 GI/L", "setting": "100 mg BIW", "value": "6 (12.0%)"},
      {"measurement": "Subjects with Platelets <50-25 GI/L", "setting": "100 mg BIW", "value": "7 (14.0%)"},
      {"measurement": "Subjects with Platelets <75-50 GI/L", "setting": "100 mg BIW", "value": "10 (20.0%)"},
      {"measurement": "Subjects with Platelets <LLN-75 GI/L", "setting": "100 mg BIW", "value": "21 (42.0%)"},
      {"measurement": "Subjects with Serum Creatinine >1 × ULN-[…] ULN", "setting": "100 mg BIW", "value": "16 (32.0%)"},
      {"measurement": "Subjects with Serum Creatinine >3 × ULN-6 × ULN", "setting": "100 mg BIW", "value": 0},
      {"measurement": "Subjects with Serum Creatinine >6 × ULN", "setting": "100 mg BIW", "value": 0},
      {"measurement": "Subjects with Serum Creatinine >[…] ULN-3 × ULN", "setting": "100 mg BIW", "value": "10 (20.0%)"},
      {"measurement": "Subjects with WBC <1 GI/L", "setting": "100 mg BIW", "value": "4 (8.0%)"},
      {"measurement": "Subjects with WBC <2-1 GI/L", "setting": "100 mg BIW", "value": "8 (16.0%)"},
      {"measurement": "Subjects with WBC <3-2 GI/L", "setting": "100 mg BIW", "value": "12 (24.0%)"},
      {"measurement": "Subjects with WBC <LLN-3 GI/L", "setting": "100 mg BIW", "value": "11 (22.0%)"},
      {"measurement": "Subjects with Hemoglobin <6.5 g/dL", "setting": "100 mg QW", "value": "1 (3.7%)"},
      {"measurement": "Subjects with Hemoglobin <8-6.5 g/dL", "setting": "100 mg QW", "value": "1 (3.7%)"},
      {"measurement": "Subjects with Hemoglobin <10-8 g/dL", "setting": "100 mg QW", "value": "12 (44.4%)"},
      {"measurement": "Subjects with Hemoglobin <LLN-10 g/dL", "setting": "100 mg QW", "value": "12 (44.4%)"}
    ]}
  ]
}
